# Results taken from the METLIN SMRT retention time set (Domingo-Almenara et al. 2019).
# Assay: gradient 5% acetonitrile 3 min, to 50% in 2 min, to 85% in 15 min, held 3 min, 100 µL/min
# Conditions: column: Zorbax Extend-C18 2.1 x 50 mm; eluents: water / acetonitrile, 0.1% formic acid
# Outline: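 Standards, all pure, were combined into mixtures of ~100 molecules and run at 100 μL/min on a Zorbax Extend-C18 column (2.1 × 50 mm, 1.8 μm) with water and acetonitrile, each containing 0.1% formic acid. A coupled quadrupole time-of-flight mass spectrometer operated in positive and negative ionization mode. Retention time values come from computationally picked adduct peaks, each inspected manually.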
row,Structure (SMILES),RP-LC retention time [s]
1,Cc1ccsc1C(=O)NC1(c2nc(-c3cccnc3)no2)CCCCC1,937
2,O=C(Cn1c(=O)oc2ccccc21)N1CCCC(COCc2ccccc2)C1 (centres undefined),897
3,O=c1n(Cc2cccc(Br)c2)nc2c(S(=O)(=O)N3CCOCC3)cccn12,811
4,Cc1nn(C)c(C)c1CCN(C)C(=O)C1CCCCC(=O)N1 (centres undefined),570
5,O=C(Nc1cccc(Br)c1)C1CC(=O)N(CCc2c[nH]c3ccc(F)cc23)C1 (centres undefined),890
6,CCc1ccc(N2CC(c3noc(-c4cccs4)n3)CC2=O)cc1 (centres undefined),1010
7,CCC1=NS(=O)(=O)c2cccnc2N1c1ccc(F)c(C)c1,897
8,O=C(Nc1ccc(N2CCOCC2)cc1)c1cn(-c2ccc(F)cc2)nn1,828
9,Cc1ccc(Nc2cc(N3CCC(C(=O)N4CCCC4)CC3)ncn2)cc1,632
10,Cn1cc(C2=CCN(S(=O)(=O)c3cccc4cccnc34)CC2)c2cccnc21,889
11,O=c1n(Cc2cccc(C(F)(F)F)c2)nc2c(S(=O)(=O)N3CCCCCC3)cccn12,1020
12,O=C(CSc1nccnc1N1CCN(c2ccccc2)CC1)Nc1ccc(F)cc1F,1110
13,O=C(c1ccncn1)N1CC(F)(F)C[C@H]1COc1ccc2c(c1)CCC2,1020
14,COc1ccc(-n2nc(SCC(=O)Nc3cc(F)ccc3F)ccc2=O)cc1,756
15,Cc1ccc2[nH]cc(CCNC(=O)c3ccc(Cl)cc3Cl)c2c1,957
16,Cc1ccc(C)c(N2CCN(c3ccnc(SCC(=O)Nc4ccc(F)cc4)n3)CC2)c1,891
17,CCCNc1cc(N2CCC(CCC(=O)NCC3CC3)CC2)ncn1,560
18,Cc1ccc2nc(N3CCNCC3)c(-c3noc(-c4ccccc4)n3)cc2c1,770
19,CC(C)(Oc1ccc(Cl)cc1)C(=O)NC1CCCCC1N1C(=O)CSC1=O (centres undefined),972
20,CN(C)c1ccc(/C=C(\C#N)C(=O)c2ccccc2)cc1,1100
21,CCn1ccc(C(=O)N2CCN(c3nc4cccnc4n(C)c3=O)CC2)n1,721
22,COc1ccc(-c2c(C)noc2NC(C)=O)cc1S(=O)(=O)Nc1ccc(S(N)(=O)=O)cc1,636
23,COc1ccc(NC(=O)C2CCN(S(=O)(=O)c3ccc4c(c3)CCCC(=O)N4)CC2)cc1Cl,782

row,Structure (SMILES),RP-LC retention time [s]
1,COc1ccc(Cl)cc1C(=O)Nc1cc(-c2cccnc2)no1,902
2,Cc1ccc(S(=O)(=O)N2CCC(n3cnnc3C)CC2)cc1Cl,736
3,COc1ccc2[nH]c(=O)c(CCC(=O)NCCOc3ccccc3OC)cc2c1,681
4,Cc1ccc(NC(=O)Nc2cccn3nc(C4CC4)nc23)cc1,912
5,O=C(c1csc(-c2ccc(N3CCCCC3)nc2)n1)N1CCN(c2ccccn2)CC1,600
6,Cc1cc(C)n(-c2ccnc(N3CCN(c4ccccc4F)CC3)n2)n1,1220
7,Cc1cc(=O)n(CC(=O)Nc2cc(F)cc(F)c2)c(N2CCCC2)n1,670
8,Cc1ccc(-c2nc(-c3ccc4c(c3)oc(=O)n4C)no2)cc1F,609
9,Cc1nc(-c2ccc3c(c2)CCN3C(=O)C2CCOC2)cs1 (centres undefined),760
10,Cc1cc(C)n(C(C)CC(=O)N2CCN(S(=O)(=O)c3ccc(Cl)cc3)CC2)n1 (centres undefined),750
11,COc1ccccc1-c1nc(C2CCN(C(=O)C3COc4ccccc4O3)CC2)no1 (centres undefined),962
12,CC(C)n1c(=O)sc2cc(S(=O)(=O)N3CCC(C(=O)NCc4cccnc4)CC3)ccc21,808
13,Cc1ccc(-c2nc(NC(=O)c3sc(C)nc3C)sc2C)cc1,1000
14,Cc1ccc(C)c(NS(=O)(=O)c2cc3n(c2)CCN(C)C3=O)c1,707
15,Cc1nc2cc(N3CCCC(C(=O)NCc4cccc(F)c4)C3)cnc2nc1C (centres undefined),735
16,CC(=O)N1c2ccc(S(=O)(=O)N3CCCCC3)cc2CC1C(=O)Nc1cc(C)ccc1C (centres undefined),912
17,Cc1ccc(-n2cc3c(N4CCCC(C(=O)NC(C)c5ccc(F)cc5)C4)ncnc3n2)cc1 (centres undefined),741
18,CC(C)c1cccc(NC(=O)Cn2ccc3sccc3c2=O)c1,878
19,CCN(CC)c1ncnc2c(-c3ccccc3)cn(CC(=O)NCC3CCCO3)c12 (centres undefined),666
20,CN1C(=O)C2CCCCN2c2ccc(C(=O)NCCN3CCOCC3)cc21 (centres undefined),582
21,CC(C)c1nnc(-c2cccnc2N2CCN(C(=O)c3ccoc3)CC2)o1,725
22,O=C(c1cn2nc(Cl)ccc2n1)N1CCN(c2ccccc2Cl)CC1,922
23,CC(C)NC(=O)C1CCN(c2nc3ccc(-c4ccc(F)cc4)nc3s2)CC1,752

row,Structure (SMILES),RP-LC retention time [s]
1,O=C1CCCc2cc(S(=O)(=O)N3CCCC(C(=O)N4CCN(c5ccccc5)CC4)C3)ccc2N1 (centres undefined),788
2,Cc1cccc(CNC(=O)CCc2nc3c(C)cccc3c(=O)n2C)c1,845
3,O=c1c2ccccc2nc2n1CCC2O (centres undefined),567
4,CC1=C(c2ccc(C)c(C)c2)S(=O)(=O)N=C1N1CCCN(C(=O)c2ccsc2)CC1,858
5,Cc1ccc(NC(=O)C2CCCN(S(=O)(=O)c3c[nH]c(C(=O)N4CCCC4)c3)C2)cc1F (centres undefined),859
6,O=c1c2cc(-c3ccccc3)nn2ccn1Cc1noc(CN2CCCCCC2)n1,671
7,Cc1oc(C2CCN(C(=O)Nc3ccccc3Cl)CC2)nc1C(=O)N(C)C,691
8,CCc1ccccc1-n1c(-c2ccc(Cl)cc2)cn2c3c(=O)n(C)c(=O)n(C)c3nc12,1110
9,COc1ccc(CN2CCNCC2)c(OC)c1OC,578
10,CCCS(=O)(=O)NCCNc1cc(-n2nc(C)cc2C)ncn1,679
11,CCOCCCNC(=O)c1c(N2CCCC2=O)c2cc(C)ccc2n1C,782
12,O=C1CC(c2cc(F)cc(F)c2)Cc2nc(N3CCN(c4ccccc4F)CC3)ncc21 (centres undefined),1300
13,Cc1nc(-c2cn(C)c3ncccc23)sc1C(=O)NCc1ccc(C(F)(F)F)cc1,981
14,CCC(=O)N1CCCN(C2=NS(=O)(=O)C(c3ccc(C)cc3)=C2C)CC1,742
15,Cc1ccc(NC(=O)Cn2nc(C(=O)N3CCCCC3)c3ccccc32)c(Br)c1,973
16,CCc1noc(NC(C)=O)c1-c1ccc(C)c(S(=O)(=O)Nc2cccc(C(F)(F)F)c2)c1,889
17,NC(=O)C1CCN(C2CC(=O)N(c3ccc4c(c3)OCCO4)C2=O)CC1 (centres undefined),568
18,Cc1ccc(S(=O)(=O)c2cnc(N3CCN(c4cccc(Cl)c4)CC3)nc2N)cc1C,1260
19,CC(=O)NCc1c(-c2ccc(Cl)cc2)nc2n1CCS2,568
20,O=C(NC1CCCCCC1)c1nc(-c2ccnc(N3CCCCC3)c2)no1,883
21,COc1ccc(Cl)cc1S(=O)(=O)N1CCC(C(=O)Nc2ccccc2F)CC1,921
22,O=C(c1cccc(Nc2c(-c3ccc(Cl)cc3)nc3cnccn23)c1)N1CCOCC1,719
23,CCCN(CC1CCOC1)C(=O)Nc1ccc(Cl)cc1C (centres undefined),639

row,Structure (SMILES),RP-LC retention time [s]
1,O=C(NC1CCCN(c2cc(-c3ccccc3)[nH]n2)C1)c1ccc2c(c1)OCO2 (centres undefined),760
2,Cc1ccc(-c2noc(C3CCCN3C(=O)c3ccc(C(C)(C)C)cc3)n2)cc1 (centres undefined),1280
3,COc1ccccc1CNC(=O)C1CCCN1S(=O)(=O)c1ccc2c(c1)C(C)(C)C(=O)N2C (centres undefined),843
4,COc1ccc(C2CNC(=O)C2)cc1OC1CCCC1 (centres undefined),794
5,CCOc1ccc(NC(=O)CN2C(=O)C3CCCCN3c3ccc(S(=O)(=O)N(C)C)cc32)cc1 (centres undefined),945
6,COc1ccc(Cl)cc1C(=O)N1CCN(c2cc(-n3nc(C)cc3C)nc(C)n2)CC1,988
7,CCCCCNC(=O)c1cn(C)nc1S(=O)(=O)N1CCSCC1,897
8,CCN(CC)S(=O)(=O)c1c(C)[nH]c(=O)[nH]c1=O,578
9,COc1cccc(-c2noc(C3CCCN3C(=O)Nc3ccccc3OC)n2)c1 (centres undefined),1020
10,CCCn1cnc2cc(CNC(=O)C(C)c3ccccc3)ccc21 (centres undefined),631
11,O=C(NCC1CCCO1)c1ccc(CN2CCN(Cc3ccc(F)cc3)C(=O)C2=O)cc1 (centres undefined),676
12,Cc1noc(-c2cccn2Cc2cc(F)cc(F)c2)n1,1040
13,Cc1cccc(-c2noc(C3CCCN3S(=O)(=O)c3ccc(Br)cc3)n2)c1 (centres undefined),1230
14,Cc1nnc(-c2ccc3ccn(CC(=O)N4CCN(Cc5ccc6c(c5)OCO6)CC4)c3c2)o1,651
15,CCOC(=O)CC1(NC(=O)N2CCN(c3nc4ccccc4nc3C(F)(F)F)CC2)CCCCC1,1230
16,CCN(Cc1ccc(OC)cc1)Cc1cc(=O)n2ccccc2n1,585
17,Cc1noc(C2CN(C(=O)Nc3cccc(F)c3C)CC23CCOCC3)n1 (centres undefined),1030
18,COc1cccc(-c2nnc(SCC(=O)NCc3cccnc3)n2-c2ccccc2)c1,573
19,COc1ccc(Nc2cc(C)nc(N)n2)cc1,644
20,CC(=O)N1CCCC1c1nc(C2CN(S(=O)(=O)c3cccs3)C2)no1 (centres undefined),703
